# Test system: DR0301-restricted E2_281-300-specific T-cell line
# Test: Tetramer staining of sorted T-cell line with peptide-loaded DR0301 tetramers
# Format: cell-based, human
# Conditions: quadrant boundary set by unloaded tetramer (Figure 2B)
substance,measurement,value
E2_285-300: truncated version of E2_281-300; minimal epitope,Staining of T-cell line with tetramers loaded with peptide,could be stained
